Consider 9 compounds from PMC7595621, “Quorum sensing N-Acyl homoserine lactones are a new class of anti-schistosomal” (PLoS Neglected Tropical Diseases, 2020).

As a reminder, the EC50 is the concentration needed to bring the measured effect to its halfway point. As usually defined, the CC50 is the concentration that lowers cell viability or growth by half. Broadly, the MIC is the lowest concentration that inhibits growth of the organism. Lower therefore signals a more susceptible organism.

The subject of one data set is S. mansoni schistosomula. As to the kind of experiment: Screening of S. mansoni schistosomula (Roboworm, motility and phenotype). Format: cell-based, Schistosoma mansoni. The following applies: for EC50: Schistosoma mansoni; for Selectivity index, schistosomula motility: HepG2 CC50 / schistosomula motility EC50; for Selectivity index, schistosomula phenotype: HepG2 CC50 / schistosomula phenotype EC50. The protocol:
Biomphalaria glabrata (NMRI and the previously described pigmented strains) snails infected with S. mansoni (Puerto Rican strain) were shed for 2 hrs under light at 26 °C. Cercariae were collected, mechanically transformed into schistosomula and subsequently prepared for high throughput screening (HTS) on the Roboworm platform as previously described. Schistosomula were cultured in Basch Media (composed of BME media, 10% M169 media, 0.5x MEM vitamins, 10% Schneider’s insect media, 15.6mM Hepes, 5% heat inactivated FBS, 2x Antibiotic/anti-mycotic (Sigma-Aldrich, UK) solution (final concentrations shown)).
EC50 values were calculated from the titrated concentrations by non-linear regression, after log transformation of concentrations and data normalization using GraphPad Prism 7.02.
Fig 2 Anti-schistosomula activity of the eight analogues compared to parent compound 1. […] Test plates were incubated at 37°C for 72 hrs in an atmosphere containing 5% CO2. At 72hrs, schistosomula were scored using the Roboworm platform for both motility (A) and phenotype (B). Any compound that induced a score of below -0.35 for motility (A) and -0.15 for phenotype (B) were considered a hit. Black squares indicate the most positive effect on motility or phenotype; grey scale from dark grey to lighter shades of grey indicates a progressive reduced compound efficacy; white squares indicate no effect on either phenotype or motility. Z´ values for this screen was 0.41741 for motility and 0.57275 for phenotype. (C) Phenotypes of schistosomula when treated with 10μM of each of the test compounds and controls.
Supplementary file pntd.0008630.s003.tif: S1 Fig Initial schistosomula screens of the 14 compounds and their intermediate analogues. […] Test plates were incubated at 37°C for 72 hrs in an atmosphere containing 5% CO2. At 72hrs, schistosomula were scored using the Roboworm platform for both motility and phenotype as previously described. A) Of the 14 compounds evaluated, two fell within the hit region. Z’ scores for motility and phenotype were 0.40079 and 0.56846 respectively. […] Z´ scores for motility and phenotype were 0.37864 and 0.47882 respectively. *Average EC50 value across motility and phenotype is presented for each compound. (TIF) Click here for additional data file.

For data set [1], the system named is adult S. mansoni worm pairs. The experiment in a line: Screening of adult S. mansoni blood flukes (7-week worms), WHO-TDR motility scoring. Format: cell-based, Schistosoma mansoni. The following applies: for EC50: 7-week worms, motility, 95% confidence interval; for EC50 / effect on adult worm motility/lethality: 72 hr; for effect on adult worm motility/lethality: highest dose 20 μM. The protocol:
(§1) Adult S. mansoni parasites were recovered by hepatic portal vein perfusion from TO outbred mice (HsdOla:TO, Tuck-Ordinary, Envigo, UK) that were percutaneously infected seven weeks earlier with 180 cercariae. Three adult worm pairs per well, in duplicate, were transferred into 48 well plates (Fisher Scientific, Loughborough, UK) and cultured at 37 °C in an atmosphere containing 5% CO2 in DMEM (Gibco, Paisley, UK) containing 10% v/v HEPES, 10% v/v Foetal Bovine Serum (FBS), 0.7% v/v 200 mM L-Glutamine and 1X v/v penicillin-streptomycin. Worms were dosed with test compounds at 20 μM, 10 μM, 5 μM, 2.5 μM, 1.25 μM and 0.625 μM (in 0.2% DMSO) for 72 hr. Adult worms were scored manually at 72 hr using the WHO-TDR metric scoring system as described previously. Dose response curves and EC50 values were obtained by non-linear regression, after log transformation of concentrations and data normalization using GraphPad Prism 7.02. At 72 hr, the medium from each well was also collected, centrifuged at 350 x g for 2 min. Afterwards, the supernatant was removed, and the remaining egg pellet re-suspended in 10% v/v formalin. Eggs that were oval and contained a fully formed lateral spine were subsequently counted.
(§2) Fig 3 Adult schistosome motility and egg production are differentially affected by the nine N-acyl homoserine lactones. […] Parasite motility was evaluated for each sex and scored using the WHO-TDR scoring system (0 = Dead parasite, 4 = Normal/Healthy movement). B) Culture media were collected from some adult co-cultures at 72 hrs and eggs present in the media were counted. p values are indicated as follows: * <0.05, ** <0.01, *** <0.001.
Initially, these screens were conducted at 20 μM; any compounds that scored a 1 or 0 for motility at this primary concentration were further titrated until no further effect was observed. […] Similar to the schistosomula assays, the differences observed in adult parasite motility when treated with the (R)- and (S)- enantiomers of Compound 1 were striking. […] Estimated EC50s for male and female parasites for these two enantiomers were determined (Table 2), with Compound 5 ((R)- enantiomer) having greater activity than Compound 6 ((S)- enantiomer).

Data set [2] in a line: Cell cytotoxicity assay (MTT). The class given is cell-based, human. The following applies: human, HepG2 cells, MTT, 95% confidence interval, called EC50.
Procedure: The cytotoxicity of each compound was assessed on human HepG2 cells as described previously [17]. Briefly, 2 x 10^4 cells/well were seeded in black walled 96-well microtiter plates (Fisher Scientific, Loughborough, UK) and incubated for 24 hr at 37°C in a humidified atmosphere containing 5% CO2. […] Following a further incubation for 24 hr, the MTT assay was performed as previously described [17, 27]. Dose response curves were obtained by non-linear regression, after log transformation of concentrations and data normalization using GraphPad Prism 7.02.
The subject of data set [3] is adult S. mansoni worm pairs (egg production). As to the kind of experiment: In vitro egg production of adult S. mansoni worm pairs. Format: cell-based, Schistosoma mansoni. The following applies: 72 hr, compared to DMSO. As for the experimental part:
as §1, §2
As morbidity associated with schistosomiasis is caused by egg-induced granuloma formation in tissues and the subsequent development of fibrotic lesions around these granulomas, compound-mediated modulation of in vitro egg production (as a surrogate for the in vivo pathology initiator) was next assessed (Fig 3B). […] In comparison to the negative control DMSO, in which egg counts ranged from 300–594 (Average—408), all N-Acyl homoserine lactones affected fecundity.

A further data set concerns S. aureus ATCC 29213. As to the kind of experiment: Broth microdilution MIC and IC50 determination, S. aureus. The class given is cell-based, Staphylococcus aureus. The following applies: Staphylococcus aureus, ATCC29213, 24 h, 24 hr. As for the experimental part: (§3) S. aureus ATCC 29213 and E. coli ATCC 25922 were cultured in Luria-Bertani (LB) medium at 37°C with aeration at 200 rpm for 24 hr, with all procedures performed in a biosafety level 2 (BSL2) cabinet. Stationary phase cultures were then used for minimum inhibitory concentration (MIC) determination using the broth microdilution method, in fresh LB medium, in a 96-well plate. All compounds were tested in triplicate using an initial bacterial concentration of 5.0 × 10^5 colony forming units (CFU)/mL at a final concentration of 125 mg/L (5% and 2.5% v/v methanol). Compounds with no visible growth at 125 mg/L were further evaluated with progressing dilutions. […] Dilutions were repeated in three independent experiments where the optical density (OD600) was measured in a Hidex plate spectrophotometer and absorbance data used for the calculation of an IC50 value. The IC50 value was obtained from a dose response titration (125–0.09 mg/L). Dose response curves were obtained by non-linear regression, after log transformation of concentrations and data normalization using GraphPad Prism 7.02.
(§4) As Compound 1 was structurally similar to N-acyl homoserine lactones, a compound class involved in bacterial quorum sensing, we decided to assess its antimicrobial activity and determine if enantiomer separation or lactone ring substitution would change this activity.
For orientation: Dilution methods test growth across graded concentrations, often in twofold steps.

The test system of the next data set is E. coli ATCC 25922. As to the kind of experiment: Broth microdilution MIC and IC50 determination, E. coli. The class given is cell-based. The following applies: Escherichia coli, ATCC25922, 24 h, 24 hr. As for the experimental part:
as §3, §4

Data set [4] concerns juvenile S. mansoni worms. As to the kind of experiment: Propidium iodide (PI) staining of juvenile S. mansoni worms. The class given is cell-based, Schistosoma mansoni. The following applies: 15 μM, 72 hrs. The protocol:
Juvenile S. mansoni parasites were recovered via hepatic portal vein perfusion from TO outbred mice (HsdOla:TO, Tuck-Ordinary, Envigo, UK) that were infected percutaneously three weeks earlier with 4000 cercariae. Preparation and centrifugation of juvenile worms have been described previously. […] After motility quantification, 2 μg/mL of PI was added to each well and the plate returned to 37°C, 5% CO2 for 15 minutes. Each well was subsequently imaged on the Roboworm platform using brightfield and fluorescent microscopy (excitation wavelength = 580 nm; emission wavelength = 604 nm). The number of PI positive vs PI negative juvenile worms were cross-checked with the motility scores obtained by our scoring matrix, and the data reported as percentage of PI positive across all parasites within the well. EC50 values were calculated from the motility scores obtained from the dose response titration (as detailed above) and dose response curves were obtained by non-linear regression, after log transformation of concentrations and data normalization using GraphPad Prism 7.02.
Three week juvenile schistosomes, incubated with compounds (1), (3) or controls for 72 hrs, were subsequently cultured with PI at a final concentration of 2 μg/mL for 15 minutes at 37 °C in an environment containing 5% CO2. PI positive parasites (dead) were counted and the percent live vs dead in each well is indicated. A) Quantification of compound (1) mediated juvenile death. B) Quantification of compound (3) mediated juvenile death.

[5] abbreviates: 72 hrs, 95% confidence interval, read-out: SCHISTOSOMULA EC50 Motility.
[6] abbreviates: 72 hrs, 95% confidence interval, read-out: SCHISTOSOMULA EC50 Phenotype.
[7] abbreviates: Schistosoma mansoni, read-out: ADULT WORM EC50 Female.
The mark [8] stands for this setting: Schistosoma mansoni, read-out: ADULT WORM EC50 Male.

Like-named read-outs stand apart in the source and are kept apart here.

As for `CC(Br)C(=O)NC1CCOC1=O` (centres unmarked) [Compound 2, 2-bromo-N-(2-oxotetrahydrofuran-3-yl)propanamide], the EC50 was greater than 10 µM with S. mansoni schistosomula (setting [5]), greater than 10 µM in the data set with S. mansoni schistosomula (setting [6]), greater than 20 µM in data set [1] (setting [7]) and greater than 20 µM in data set [1] (setting [8]). Also, in data set [1], the “effect on adult worm motility/lethality” value is given as “no activity”. In data set [2], this compound displayed a CC50 at 24 h greater than 200 µM.
As to `CC(Br)C(=O)NC1CCSC1=O` (centres unmarked) [Compound 4, 2-bromo-N-(2-oxotetrahydrothiophen-3-yl)propanamide], the “Selectivity index, schistosomula motility” value with S. mansoni schistosomula was determined as 15.4. Besides, the “Selectivity index, schistosomula phenotype” value with S. mansoni schistosomula is 14.4. The EC50 in data set [1] (read-out: ADULT WORM EC50 Female) is greater than 10 µM; in data set [1] (read-out: ADULT WORM EC50 Male), greater than 10 µM; in data set [1] (setting [7]) it was 18.4 µM; in data set [1] (setting [8]), 10.5 µM. Besides, the “effect on adult worm motility/lethality” value in data set [1] is given as “only demonstrated lethality at the highest concentration”.
Consider `O=C(CBr)N[C@@H]1CCOC1=O` [Compound 5, (R)-2-bromo-N-(2-oxotetrahydrofuran-3-yl)acetamide], for which the “Selectivity index, schistosomula motility” value in the data set with S. mansoni schistosomula is reported as 16.3. The “Selectivity index, schistosomula phenotype” value with S. mansoni schistosomula is on record as 12.7. The EC50 in the data set on S. mansoni schistosomula (setting [5]) is 3.1 µM; in the data set on S. mansoni schistosomula (setting [6]), 4 µM; in data set [1] (setting [7]) it was greater than 10 µM; in data set [1] (setting [8]), greater than 10 µM. In addition, the “effect on adult worm motility/lethality” value in data set [1] is on record as “complete immobility”. Moreover, the “effect on egg production (fecundity)” value in data set [3] was “reduced egg production”. Further, the CC50 at 24 h in data set [2] stood at 50.6 µM. Further, the MIC stood at 125 µg/mL in the data set on S. aureus ATCC 29213 (no visible growth), 563 µM in the data set on S. aureus ATCC 29213 (value in square brackets), 125 µg/mL in the data set with E. coli ATCC 25922 (no visible growth) and 563 µM with E. coli ATCC 25922 (value in square brackets).
For `O=C(CBr)N[C@H]1CCOC1=O` [Compound 6, (S)-2-bromo-N-(2-oxotetrahydrofuran-3-yl)acetamide], the EC50 in the data set with S. mansoni schistosomula (setting [5]) was greater than 10 µM; in the data set with S. mansoni schistosomula (setting [6]) it was greater than 10 µM; in data set [1] (setting [7]), greater than 20 µM. For the same compound, the “anti-schistosomula activity (phenotype and motility)” value in the data set on S. mansoni schistosomula (titration 10 to 0.625 μM, 72 hrs) is recorded as “no anti-schistosomula activity was observed”. For the same compound, the “Selectivity index, adult worm male” value in data set [1] (HepG2 CC50 / adult male EC50) was found to be 6.3. The “effect on adult worm motility/lethality” value in data set [1] is recorded as “did not have this effect”. The “effect on egg production (fecundity)” value in data set [3] is “reduced egg production”. The compound also yielded a CC50 at 24 h in data set [2] greater than 100 µM. In addition, the MIC in the data set on S. aureus ATCC 29213 (no visible growth) was greater than 125 µg/mL; in the data set with S. aureus ATCC 29213 (value in square brackets), greater than 563 µM; in the data set with E. coli ATCC 25922 (no visible growth), greater than 125 µg/mL; against E. coli ATCC 25922 (value in square brackets), greater than 563 µM.
Regarding `O=C(CCl)NC1CCOC1=O` (centres unmarked) [Compound 7, 2-chloro-N-(2-oxotetrahydrofuran-3-yl)acetamide], the “effect on adult worm motility/lethality” value in data set [1] is listed as “No lethality/motility defects were observed”.
On the same count and under the same terms, for `O=C(CCl)NC1CCSC1=O` (centres unmarked) [Compound 8, 2-chloro-N-(2-oxotetrahydrothiophen-3-yl)acetamide] the value was “No lethality/motility defects were observed”.
Regarding `CC(Cl)C(=O)NC1CCOC1=O` (centres unmarked) [Compound 9, 2-chloro-N-(2-oxotetrahydrofuran-3-yl)propanamide], the “effect on adult worm motility/lethality” value in data set [1] is on record as “No lethality/motility defects were observed”.
For `O[C@H]([C@H](O)COC(c1ccccc1)(c1ccccc1)c1ccccc1)[C@@H](O)COC(c1ccccc1)(c1ccccc1)c1ccccc1` [Compound E, (2R,3s,4S)-1,5-bis(trityloxy)pentane-2,3,4-triol], the “effect on schistosomula motility and phenotype metrics in initial screen” value with S. mansoni schistosomula (10 μM, 72 hrs) is “negatively affected both schistosomula motility and phenotype metrics”. Moreover, in the data set with S. mansoni schistosomula (72 h, read-out: average EC50 for phenotype and motility, schistosomula), the EC50 was 5.6 µM.
For `CC(=O)OC[C@H]1O[C@@H]([S-])[C@H](OC(C)=O)[C@@H](OC(C)=O)[C@@H]1OC(C)=O.CCP(CC)CC.[Au+]` [auranofin, reference compound], the “Percent P.I positive parasites” value in data set [4] came to 100%.
